Active and inactive are the calls of the source. The rule behind the calls is not given here.

The source of these data is PubChem BioAssay AID1259407 (Chemical Carcinogenesis Research Information System (CCRIS), 2018).

This data set relates to CCRIS mutagenicity, Ames/micronucleus/aberration tests. Description: CCRIS mutagenicity studies.
[1] abbreviates: Test System: AMES SALMONELLA TYPHIMURIUM, Strain/Indicator: TA98, Metabolic Activation: NONE, Method: STANDARD PLATE.
The mark [2] stands for this setting: Test System: AMES SALMONELLA TYPHIMURIUM, Strain/Indicator: TA100, Metabolic Activation: NONE, Method: STANDARD PLATE.
Where [3] appears, read: Test System: AMES SALMONELLA TYPHIMURIUM, Strain/Indicator: TA1535, Metabolic Activation: NONE, Method: STANDARD PLATE.
[4] abbreviates: Test System: AMES SALMONELLA TYPHIMURIUM, Strain/Indicator: TA1537, Metabolic Activation: NONE, Method: STANDARD PLATE.
The mark [5] stands for this setting: Test System: AMES SALMONELLA TYPHIMURIUM, Strain/Indicator: TA100, Metabolic Activation: NONE, Method: PREINCUBATION
Setting [6] is: Test System: AMES SALMONELLA TYPHIMURIUM, Strain/Indicator: TA98, Metabolic Activation: NONE, Method: PREINCUBATION
Setting [7] is: Test System: AMES SALMONELLA TYPHIMURIUM, Strain/Indicator: TA98, Metabolic Activation: RAT, LIVER, S-9, AROCLOR 1254, Method: PREINCUBATION
Where [8] appears, read: Test System: AMES SALMONELLA TYPHIMURIUM, Strain/Indicator: TA100, Metabolic Activation: RAT, LIVER, S-9, AROCLOR 1254, Method: PREINCUBATION
Where [9] appears, read: Test System: AMES SALMONELLA TYPHIMURIUM, Strain/Indicator: TA102, Metabolic Activation: NONE, Method: PREINCUBATION
[10] abbreviates: Test System: AMES SALMONELLA TYPHIMURIUM, Strain/Indicator: TA102, Metabolic Activation: RAT, LIVER, S-9, AROCLOR 1254, Method: PREINCUBATION

For the compound `CO/N=C(\C(=O)N[C@@H]1C(=O)N2C(C(=O)[O-])=C(C[n+]3ccn4ncccc43)CS[C@H]12)c1nsc(N)n1`, the mutagenic call by setting is: under setting [1], “inactive; negative”; (Test System: AMES SALMONELLA TYPHIMURIUM, Strain/Indicator: TA98, Metabolic Activation: RAT, LIVER, S-9, SODIUM PHENOBARBITAL AND 5,6-BENZOFLAVONE, Method: STANDARD PLATE) “inactive; negative”; under setting [2], “inactive; negative”; (Test System: AMES SALMONELLA TYPHIMURIUM, Strain/Indicator: TA100, Metabolic Activation: RAT, LIVER, S-9, SODIUM PHENOBARBITAL AND 5,6-BENZOFLAVONE, Method: STANDARD PLATE) “inactive; negative”; under setting [3], “inactive; negative”; (Test System: AMES SALMONELLA TYPHIMURIUM, Strain/Indicator: TA1535, Metabolic Activation: RAT, LIVER, S-9, SODIUM PHENOBARBITAL AND 5,6-BENZOFLAVONE, Method: STANDARD PLATE) “inactive; negative”. Further, the mutagenic call under setting [4] is “inactive; negative”; the mutagenic call (Test System: AMES SALMONELLA TYPHIMURIUM, Strain/Indicator: TA1537, Metabolic Activation: RAT, LIVER, S-9, SODIUM PHENOBARBITAL AND 5,6-BENZOFLAVONE, Method: STANDARD PLATE) is “inactive; negative”; the mutagenic call (Test System: E. COLI, Strain/Indicator: WP2 UVRA, Metabolic Activation: NONE, Method: STANDARD PLATE) was “inactive; negative”; the mutagenic call (Test System: E. COLI, Strain/Indicator: WP2 UVRA, Metabolic Activation: RAT, LIVER, S-9, SODIUM PHENOBARBITAL AND 5,6-BENZOFLAVONE, Method: STANDARD PLATE) was “inactive; negative”.
For `O=NN1CCOC(O)C1` (stereo not given), the mutagenic call by setting is: under setting [5], “active; positive”; (Test System: AMES SALMONELLA TYPHIMURIUM, Strain/Indicator: TA1535, Metabolic Activation: NONE, Method: PREINCUBATION) “active; positive”; (Test System: AMES SALMONELLA TYPHIMURIUM, Strain/Indicator: TA1535, Metabolic Activation: RAT, LIVER, S-9, AROCLOR 1254, Method: PREINCUBATION) “active; positive”.
Take `CS(C)(=O)=O`: the mutagenic call is “inactive; negative” under setting [6]; “inactive; negative” under setting [7]; “inactive; negative” under setting [5]; “inactive; negative” under setting [8]; “inactive; negative” under setting [9]; “inactive; negative” under setting [10].
As for `CSC[C@H](NC(=O)COc1cccc2cnccc12)C(=O)N[C@@H](Cc1ccccc1)[C@H](O)C(=O)N1CSC[C@H]1C(=O)NC(C)(C)C`, the mutagenic call (Test System: AMES SALMONELLA TYPHIMURIUM, Strain/Indicator: TA98, Metabolic Activation: HAMSTER, LIVER, S-9, AROCLOR 1254, Method: STANDARD PLATE) is “inactive; negative”; the mutagenic call under setting [1] is “inactive; negative”; the mutagenic call (Test System: AMES SALMONELLA TYPHIMURIUM, Strain/Indicator: TA98, Metabolic Activation: RAT, LIVER, S-9, AROCLOR 1254, Method: STANDARD PLATE) was “inactive; negative”; the mutagenic call (Test System: AMES SALMONELLA TYPHIMURIUM, Strain/Indicator: TA100, Metabolic Activation: HAMSTER, LIVER, S-9, AROCLOR 1254, Method: STANDARD PLATE) was “inactive; negative”; the mutagenic call under setting [2] was “inactive; negative”; the mutagenic call (Test System: AMES SALMONELLA TYPHIMURIUM, Strain/Indicator: TA100, Metabolic Activation: RAT, LIVER, S-9, AROCLOR 1254, Method: STANDARD PLATE) was “inactive; negative”. Further, the mutagenic call (Test System: AMES SALMONELLA TYPHIMURIUM, Strain/Indicator: TA1535, Metabolic Activation: HAMSTER, LIVER, S-9, AROCLOR 1254, Method: STANDARD PLATE) was “inactive; negative”; the mutagenic call under setting [3] is “inactive; negative”; the mutagenic call (Test System: AMES SALMONELLA TYPHIMURIUM, Strain/Indicator: TA1535, Metabolic Activation: RAT, LIVER, S-9, AROCLOR 1254, Method: STANDARD PLATE) was “inactive; negative”; the mutagenic call (Test System: AMES SALMONELLA TYPHIMURIUM, Strain/Indicator: TA1537, Metabolic Activation: HAMSTER, LIVER, S-9, AROCLOR 1254, Method: STANDARD PLATE) is “inactive; negative”; the mutagenic call under setting [4] is “inactive; negative”; the mutagenic call (Test System: AMES SALMONELLA TYPHIMURIUM, Strain/Indicator: TA1537, Metabolic Activation: RAT, LIVER, S-9, AROCLOR 1254, Method: STANDARD PLATE) was “inactive; negative”. The mutagenic call runs as follows: (Test System: AMES SALMONELLA TYPHIMURIUM, Strain/Indicator: TA1538, Metabolic Activation: HAMSTER, LIVER, S-9, AROCLOR 1254, Method: STANDARD PLATE) “inactive; negative”; (Test System: AMES SALMONELLA TYPHIMURIUM, Strain/Indicator: TA1538, Metabolic Activation: NONE, Method: STANDARD PLATE) “inactive; negative”; (Test System: AMES SALMONELLA TYPHIMURIUM, Strain/Indicator: TA1538, Metabolic Activation: RAT, LIVER, S-9, AROCLOR 1254, Method: STANDARD PLATE) “inactive; negative”; (Test System: Mouse lymphoma, Strain/Indicator: L5178Y (tk+/tk-), Metabolic Activation: None, Method: Suspension/plate) “inactive; negative”; (Test System: Mouse lymphoma, Strain/Indicator: L5178Y (tk+/tk-), Metabolic Activation: Rat, Liver, S-9, Aroclor 1254, Method: Suspension/plate) “active; equivocal (previous evaluation positive)”.
For the compound `C[C@H]1C(=O)O[C@@H]2CCN3CC=C(COC(=O)[C@](C)(O)[C@]1(C)O)[C@H]23`, the mutagenic call runs as follows: (Test System: AMES SALMONELLA TYPHIMURIUM, Strain/Indicator: TA100, Metabolic Activation: HAMSTER, LIVER, S-9, PCB, Method: PREINCUBATION) “inactive; negative”; (Test System: AMES SALMONELLA TYPHIMURIUM, Strain/Indicator: TA100, Metabolic Activation: RAT, LIVER, S-9, PCB, Method: PREINCUBATION) “inactive; negative”; (Test System: AMES SALMONELLA TYPHIMURIUM, Strain/Indicator: TA100, Metabolic Activation: RAT, LIVER, S-9, SODIUM PHENOBARBITAL AND BETA-NAPHTHOFLAVONE, Method: PREINCUBATION) “inactive; negative”; (Test System: MOUSE LYMPHOMA, Strain/Indicator: L5178Y (TK+/TK-), Metabolic Activation: NONE, Method: MICROWELL) “active; positive”; (Test System: MOUSE LYMPHOMA, Strain/Indicator: L5178Y (TK+/TK-), Metabolic Activation: S-9, Method: MICROWELL) “active; positive”; (Test System: UDS HAMSTER HEPATOCYTES, Strain/Indicator: THY INCORP, Metabolic Activation: NONE, Method: AUTORADIOGRAPHY) “active; positive”. Moreover, the mutagenic call (Test System: UDS MOUSE HEPATOCYTES, Strain/Indicator: THY INCORP, Metabolic Activation: NONE, Method: AUTORADIOGRAPHY) is “active; positive” and the mutagenic call (Test System: UDS RAT HEPATOCYTES, Strain/Indicator: THY INCORP, Metabolic Activation: NONE, Method: AUTORADIOGRAPHY) was “active; positive”.
`CCC(=O)C(C)=O`: the mutagenic call is “inactive; negative” under setting [6]; “inactive; negative” under setting [7]; “inactive; negative” under setting [5]; “inactive; negative” under setting [8]; “inactive; negative” under setting [9]; “inactive; negative” under setting [10].
